These results are taken from PMC7177849, “Gut Microbial Catabolites of Tryptophan Are Ligands and Agonists of the Aryl Hydrocarbon Receptor: A Detailed Characterization” (International Journal of Molecular Sciences, 2020).

Read-outs that look alike come from different tables or passages of the source.

A word on the EC50: it is the concentration at which the effect is half-maximal.

Data set [1] relates to AhR. Details: method as in PMID 27158904. The note with it: IAA approx. 5000 µM; cited from earlier work.
For data set [2], the system named is CYP1A1 mRNA. As to the kind of experiment: CYP1A1 mRNA (qRT-PCR) in intestinal LS180 cells. Type of data set: cell-based, human. The settings on record: LS180 cells co-incubated with TCDD (10 nM), 24 h. As for the experimental part: (§1) Figure 4 Effects of MICT on the induction of CYP1A1 mRNA in human hepatic and intestinal cells. Cultured cells were incubated for 24 h with the vehicle (DMSO; 0.1% v/v) and tested MICT in the presence or absence of TCDD (10 nM). RT-PCR determined the level of CYP1A1 mRNA, and the data were normalized per GAPDH mRNA level. […] (A,B) Experiments in three consecutive passages of human colon adenocarcinoma cell line LS180 in the absence (A) and the presence (B) of 10 nM TCDD. The bar graphs show the percentage of maximal induction attained by TCDD and are expressed as the mean ± SD. (C) Experiments in three consecutive passages of wild-type (AhR^+/^+) and AhR-knockout (AhR^−/^−) HT-29 cells. […] (D) Primary human hepatocytes from three different donors (LH79, Hep2201020, and Hep2201021).
(§2) Total RNA was isolated using TRI Reagent® (Sigma Aldrich, Prague, Czech Republic). cDNA was synthesized using M-MuLV reverse transcriptase (New England Biolabs, Ipswich, MA, USA). The reverse transcription was performed at 42 °C for 60 min using Random Primers 6 (New England Biolabs, Ipswich, MA, USA) and diluted in a 1:4 ratio by PCR-grade water. The quantitative reverse transcriptase-polymerase chain reaction (qRT-PCR) was performed on the Lightcycler 480 II using the LightCycler ® 480 Probes Master (Roche Diagnostic Corporation, Prague, Czech Republic). The levels of CYP1A1 and GAPDH mRNAs were determined using the Universal Probe Library probes (UPL; Roche Diagnostic Corporation, Prague, Czech Republic) in combination with specific primers, using a protocol described elsewhere. All measurements were performed in triplicates, and the gene expression was normalized to glyceraldehyde-3-phosphate dehydrogenase (GAPDH) as a house-keeping gene. The data were processed using the delta-delta Ct method and expressed as a fold induction over the negative control (DMSO) or as a percentage of the positive control (maximal induction by TCDD).
(In qPCR the cycle at which signal appears reflects the starting amount.)

In data set [3] the test system is mouse AhR. Set-up: method as in PMID 9708986. The settings on record: cited from earlier work.
Data set [4] relates to CYP1A1 mRNA. As to the kind of experiment: Summary of CYP1A1 gene expression in human hepatic and intestinal cells. The data set is classed as cell-based. The note with it: for induction of CYP1A1 mRNA: 200 µM, LS180 cells, HT-29 cells, and primary human hepatocytes; for Gene Expression: Table 1 summary class, CYP1A1. As for the experimental part: as §1, §2
The test system of data set [5] is CYP1A1 mRNA. Details: method as in PMID 24563545. The settings on record: 100 µM IAA, cited from earlier work.
The subject of data set [6] is guinea pig AhR. Set-up: method as in PMID 9708986. The note with it: cited from earlier work.
Data set [7] deals with T1, AhR (Homo sapiens, UniProt P35869).
T1 sequence (P35869 11-848): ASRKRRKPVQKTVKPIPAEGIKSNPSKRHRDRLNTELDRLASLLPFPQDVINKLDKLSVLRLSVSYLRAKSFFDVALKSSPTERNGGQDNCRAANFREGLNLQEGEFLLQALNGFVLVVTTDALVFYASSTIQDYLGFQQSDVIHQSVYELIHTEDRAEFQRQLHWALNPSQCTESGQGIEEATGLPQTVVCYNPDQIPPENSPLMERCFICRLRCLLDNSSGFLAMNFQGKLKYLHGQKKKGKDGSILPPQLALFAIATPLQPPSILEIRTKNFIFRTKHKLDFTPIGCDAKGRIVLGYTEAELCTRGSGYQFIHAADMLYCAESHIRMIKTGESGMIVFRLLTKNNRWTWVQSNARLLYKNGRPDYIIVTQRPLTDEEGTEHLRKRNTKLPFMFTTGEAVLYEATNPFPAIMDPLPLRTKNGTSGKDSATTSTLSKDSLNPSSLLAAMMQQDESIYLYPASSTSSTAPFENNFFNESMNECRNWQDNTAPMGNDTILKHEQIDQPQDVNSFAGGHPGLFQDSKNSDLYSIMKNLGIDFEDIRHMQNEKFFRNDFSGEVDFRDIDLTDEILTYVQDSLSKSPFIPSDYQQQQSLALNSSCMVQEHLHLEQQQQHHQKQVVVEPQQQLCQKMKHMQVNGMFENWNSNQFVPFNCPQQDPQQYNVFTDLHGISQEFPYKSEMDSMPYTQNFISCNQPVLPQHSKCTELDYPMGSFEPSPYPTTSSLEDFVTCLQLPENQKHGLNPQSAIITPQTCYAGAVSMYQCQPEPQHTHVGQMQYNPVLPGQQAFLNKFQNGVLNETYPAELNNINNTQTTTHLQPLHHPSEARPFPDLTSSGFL
Kind of data set: Reporter gene assay in AZ-AHR cells, antagonist analyses against TCDD, BaP, FICZ. As for the experimental part: (§3) In the first series of experiments, we evaluated the agonistic and antagonistic effects of MICT on the AhR activation. […] The antagonistic effects of MICT were evaluated against typical full agonists of the AhR, comprising TCDD, BaP, and FICZ, which were applied at fixed concentrations corresponding to their EC80.
AZ-AHR cells were incubated for 24 h with vehicle (DMSO; 0.1% v/v) and increasing concentrations of MICT, in the absence (agonist analyses) or the presence (antagonist analyses) of TCDD (13.5 nM), BaP (15.8 µM) and FICZ (22.6 µM). Following the treatments, we lysed cells, and luciferase activity was measured. Experiments were performed at least in four consecutive cell passages. Incubations were performed in quadruplicates (technical replicates). In agonist analyses, the data from a representative experiment, expressed as a fold induction of luciferase activity over control cells, are shown. In antagonist analyses, the data are a percentage of maximal induction, and they are the mean ± SD.
AZ-AHR cells were incubated for 24 h with vehicle (DMSO; 0.1% v/v) and increasing concentrations of tested MICT in the presence or absence of TCDD (13.5 nM), FICZ (22.6 µM), or BaP (15.8 µM). Then, cells were lysed, and luciferase activity was measured using the Tecan Infinite M200 plate luminometer (Schoeller Instruments, Czech Republic). The experiments were performed in at least four consecutive cell passages, and the treatments were in quadruplicates (technical replicates). The values of half-maximal effective concentration (EC50) for each MICT, and half-maximal inhibitory concentration (IC50—where appropriate) were calculated.
A general note: In a reporter assay the amount or activity of a reporter protein is the signal.

The target in data set [8] is T1, AhR. As to the kind of experiment: Reporter gene assay in AZ-AHR cells, agonist analyses (luciferase). As for the experimental part: as §3
Following the treatments, we lysed cells, and luciferase activity was measured. Experiments were performed at least in four consecutive cell passages. Incubations were performed in quadruplicates (technical replicates). In agonist analyses, the data from a representative experiment, expressed as a fold induction of luciferase activity over control cells, are shown. In antagonist analyses, the data are a percentage of maximal induction, and they are the mean ± SD.
Then, cells were lysed, and luciferase activity was measured using the Tecan Infinite M200 plate luminometer (Schoeller Instruments, Czech Republic). The experiments were performed in at least four consecutive cell passages, and the treatments were in quadruplicates (technical replicates). The values of half-maximal effective concentration (EC50) for each MICT, and half-maximal inhibitory concentration (IC50—where appropriate) were calculated.
Supplementary Figure 2. Tryptophan effects in culture medium on AhR activity. (A) Time-course of Trp
levels in culture media from hepatic (AZ-AHR), instestinal (LS174T) and skin (HaCaT) cells. Determined by
HPLC. (B) Induction of AhR-dependent luciferase activity in AZ-AHR cells incubated for 24 h with TCDD,
Indole and Trp in Trp/serum-free culture medium. (C) Induction of AhR-dependent luciferase activity in
AZ-AHR cells incubated for 24 h with TCDD and Indole in standard (+Trp/+FBS), serum-free (+Trp/-FBS),
Trp-free (-Trp/+FBS) and Trp/serum-free (-Trp/-FBS) culture medium. […]

Data set [9] has as its system AhR. Details: method as in PMID 26235394. The note with it: 10 µM IPA, HepG2 cells; cited from earlier work.
Data set [10] addresses T2, murine AhR (Mus musculus, UniProt P30561).
T2 sequence (P30561 10-805): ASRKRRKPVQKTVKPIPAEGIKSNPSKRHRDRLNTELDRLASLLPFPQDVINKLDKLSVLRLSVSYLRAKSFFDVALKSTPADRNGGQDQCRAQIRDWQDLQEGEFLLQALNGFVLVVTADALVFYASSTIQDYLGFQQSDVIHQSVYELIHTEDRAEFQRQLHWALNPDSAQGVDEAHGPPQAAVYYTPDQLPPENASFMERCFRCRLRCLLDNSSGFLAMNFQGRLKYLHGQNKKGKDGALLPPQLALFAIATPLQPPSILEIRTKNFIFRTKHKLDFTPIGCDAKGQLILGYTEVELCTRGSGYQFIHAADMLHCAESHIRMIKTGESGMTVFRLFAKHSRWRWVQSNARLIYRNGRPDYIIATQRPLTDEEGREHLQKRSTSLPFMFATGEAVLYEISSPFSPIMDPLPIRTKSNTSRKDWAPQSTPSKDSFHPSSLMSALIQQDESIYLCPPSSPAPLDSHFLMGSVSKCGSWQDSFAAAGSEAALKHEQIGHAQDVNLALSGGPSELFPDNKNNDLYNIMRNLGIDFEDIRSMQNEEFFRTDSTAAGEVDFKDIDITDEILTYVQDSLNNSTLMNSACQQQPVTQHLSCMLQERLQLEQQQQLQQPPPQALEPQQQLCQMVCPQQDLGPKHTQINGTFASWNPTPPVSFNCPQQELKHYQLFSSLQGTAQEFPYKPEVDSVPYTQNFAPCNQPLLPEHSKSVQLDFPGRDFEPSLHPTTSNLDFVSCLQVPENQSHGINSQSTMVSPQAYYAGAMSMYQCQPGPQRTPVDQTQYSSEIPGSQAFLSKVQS
As to the kind of experiment: Competitive radio-ligand ([3H]-TCDD) AhR binding assay, cytosols from Hepa1c1c7 cells. The settings on record: data not shown. As for the experimental part: Figure 2 Competitive radio-ligand binding assay. Cytosols from Hepa1c1c7 cells were incubated with vehicle (negative control; 0.1% V/V), FICZ (positive control; 0.01 nM – 10 nM), TCDF (non-specific binding; 200 nM) and increasing doses of MICT in the presence of 2 nM [^3H]-TCDD. The specific binding of [^3H]-TCDD was determined as a difference between total and non-specific (200 nM; TCDF) reactions (value for vehicle DMSO; 0.1% V/V = corresponds to specific binding of [^3H]-TCDD = 100%). At least two independent experiments were performed and the incubations were done in triplicates in each experiment (technical replicates).
Ligand binding assay was performed using cytosolic protein extracts from murine Hepa1c1c7 cells as described. Briefly, aliquots of protein (2 mg/mL) were incubated at the room temperature for two (2) h with 2 nM [^3H]-TCDD in the presence of DMSO (vehicle control), FICZ (positive control), 200 nM TCDF (non-specific binding) or increasing concentration of MICT. After the incubation, the hydroxyapatite slurry was added to the samples and the suspension was incubated on ice and washed three times with HEGT buffer. The hydroxyapatite pellet was re-suspended in scintillation cocktail, and radioactivity was determined in a liquid scintillation counter. The specific binding of [^3H]-TCDD was determined by subtracting the radioactivity of non-specific reaction (TCDF) from total radioactivity. The values of IC50 were calculated where appropriate.

`O=C(O)Cc1c[nH]c2ccccc12` [IAA, indole-3-acetate]: in data set [1], the “activation of the AhR” value was 15 fold. Moreover, the “antagonistic effects on CYP1A1 mRNA” value in [2] is “to a lesser extent”. The “concentration at which activation of AhR was described” value in data set [3] and in [6] was 2 mM in each case. Moreover, the “induction of CYP1A1 mRNA” value in data set [4] is “no induction”; in data set [5] (Caco-2 and MDA-MB-231 cells), “≈ 5 fold”; in data set [5] (MDA-MB-468 cells), “not”. The “Gene Expression” value in [4] is “inactive”.

Take `O=C(O)CCc1c[nH]c2ccccc12` [IPA, indole-3-propionate]: the “antagonistic effect against full agonists” value in data set [7] (AZ-AHR cells, 24 h, TCDD, BaP and FICZ at EC80) is on record as “no antagonistic effects”. For the same compound, the “Antagonism (IC50)” value in data set [7] (Table 1 summary class) is listed as “none”. The “antagonistic effects on CYP1A1 mRNA” value in data set [2] is recorded as “to a lesser extent”. Also, the “activation of AhR” value in data set [8] (AZ-AHR cells, 200 µM) is on record as “negligible activation”. In data set [8] (AZ-AHR cells, 24 h, up to 200 µM (IAC 100 µM, IND 10 mM), plateau not reached), the “fold induction of luciferase activity (efficacy)” value is “≈ 8 fold”. For the same compound, in data set [8] (EC50, AZ-AHR cells, 24 h, agonist analyses), the EC50 is 98.3 ± 5.72 µM. Also, in data set [8] (Table 1 summary class), the “Efficacy (EMAX)” value is given as “low” and the “Potency (EC50)” value was “low”. In [4], the “induction of CYP1A1 mRNA” value is listed as “no induction” and the “Gene Expression” value is “inactive”. Moreover, the AhR activation entry in data set [9] is reported as “no AhR activation”.

On to `N[C@@H](Cc1c[nH]c2ccccc12)C(=O)O` [Trp, tryptophan], for which, in data set [8], the “activation of AhR” value is “did not activate”. Moreover, the “displacement of 3H-TCDD from binding at the murine AhR” value in data set [10] is listed as “did not displace”.
